Experimental data reported in patent US20230332232A1, “COMPOSITIONS AND METHODS FOR DIAGNOSING AND TREATING A DYSTONIA” (Duke University, priority 2020, published 2023).

Test system: wild-type (WT) murine embryonic fibroblasts (MEFs)
Assay: Untargeted LC/MS/MS proteomics of EVs from WT MEFs exposed 24 hours to drug, compared with untreated WT MEFs
Format: cell-based, mouse
Method: Methods for isolation and purification of exosomes and extracellular vesicles (EV) were extensively reviewed. Experiments were performed to arrive at a robust and reproducible protocol. The protocol used herein is that set forth in Théry et al, 2006, which is incorporated by reference for it teaching of this protocol. This protocol involves depleting serum-derived EVs from cell culture media by overnight ultracentrifugation and exchanging media for 1% FBS EV-depleted media. Media is then collected from cells following a 24-hour conditioning period and EVs are isolated by 18-hour ultracentrifugation at 100,000 g (FIG. 1A).
EVs were isolated from media of cultured murine embryonic fibroblasts (MEFs) prepared in-house according to protocols described by Xu 2005 from DYT1 knockin mice (Tor1a^delGAG/+) (Goodchild R E, et al. (2005) Neuron. 48:923-932) and littermate wild-type (WT) controls. The cultured MEFs from the DYT1 mice were exposed for 24 hours to Ritonavir (RTV) while the MEFs from WT mice were exposed to vehicle, ISRIB, or Salubrinal (SAL). The EVs isolated from these WT cells and DYT1 were characterized by untargeted proteomics and RNA-seq to identify differentially expressed proteins and RNAs as candidate biomarkers. Experimenter and Proteomics core staff were blinded to genotype of cell cultures throughout preparation and analysis phases. EV isolation was confirmed by Western immunoblot documenting presence of the exosomal marker (TSG101) and absence of the endoplasmic reticulum (ER) marker (CANX) (FIG. 1B (Cohort 1) and FIG. 1C (Cohort 2)).
Following the bicinchoninic acid assay (BCA) analysis and Western immunoblot of a portion of samples for QC, 11.6 μg-129.2 μg of EV protein lysates in RIPA buffer were sent to the Duke Proteomics and Metabolomics Shared Resource core facility for LC/MS/MS quantitative proteomic analysis. Samples were first normalized to 20 μg and spiked with undigested casein at a total of 40 fmol/μg, 80 fmol/μg, or 160 fmol/μg, then reduced with 10 mM dithiolthreitol for 30 minute at 80° C. and alkylated with 20 mM iodoacetamide for 30 minutes at room temperature. Next, the samples were supplemented with a final concentration of 1.2% phosphoric acid and 741 μL of S-Trap (Protifi) binding buffer (90% MeOH/100 mM […]). Proteins were trapped on the S-Trap, digested using 20 ng/μL sequencing grade trypsin (Promega) for 1 hour at 47° C., and eluted using 50 mM TEAB, followed by 0.2% FA, and lastly using 50% CAN/0.2% FA. All samples were then lyophilized to dryness and resuspended in 40 μL 1% TFA/2% acetonitrile containing 12.5 fmol/μL yeast alcohol dehydrogenase (ADH_YEAST). A QC Pool was created from 3 uL of each sample. All QC Pools were run periodically throughout the acquisition period.
Quantitative LC/MS/MS was performed on 2 μL of each sample, using a nanoAcquity UPLC system (Waters Corp) coupled to a Thermo Orbitrap Fusion Lumos high resolution accurate mass tandem mass spectrometer (Thermo) via a nanoelectrospray ionization source. Briefly, the sample was first trapped on a Symmetry C18 20 mm×180 μm trapping column (5 μL/min at 99.9/0.1 v/v water/acetonitrile), after which the analytical separation was performed using a 1.8 μm Acquity HSS T3 C18 75 μm×250 mm column (Waters Corp.) with a 90 minute linear gradient of 5% to 30% acetonitrile with 0.1% formic acid at a flow rate of 400 nanoliters/minute (nL/min) with a column temperature of 55° C. Data collection on the Fusion Lumos mass spectrometer was performed in a data-dependent acquisition (DDA) mode of acquisition with a r=120,000 (@ m/z 200) full MS scan from m/z 375-1500 with a target AGC value of 2e5 ions. MS/MS scans were acquired at Rapid scan rate (Ion Trap) with an AGC target of 5e3 ions and a max injection time of 100 ms. The total cycle time for MS and MS/MS scans was 2 seconds. A 20 second dynamic exclusion was employed to increase depth of coverage. The total analysis cycle time for each sample injection was approximately 2 hours. […]

Measured: ISRIB Direction Same as dE?

O=C(COc1ccc(Cl)cc1)NC1CCC(NC(=O)COc2ccc(Cl)cc2)CC1 (stereo not shown) [ISRIH]
yes: EV protein: 26S proteasome non-ATPase regulatory subunit 8 | EV protein: 60S [?] subunit biogenesis protein [?] homolog | EV protein: 116 kDa [?] small nuclear ribonucleoprotein component | EV protein: AP-3 complex subunit [?] | EV protein: ATP- binding cassette sub-family [?] member 1 | EV protein: ATP-dependent RNA helicase [?] | EV protein: Acetyl-CoA carboxylase 1 | EV protein: Acyl-protein thioesterase 2 | EV protein: Anaphase-promoting complex subunit 2 | EV protein: Anaphase-promoting complex subunit 4 | EV protein: Anaphase-promoting complex subunit 5 | EV protein: Anaphase-promoting complex subunit 7 | EV protein: Apolipoprotein M | EV protein: Cell [?] cycle protein [?] homolog | EV protein: Cell division cycle protein 27 homolog | EV protein: Coiled-coil domain-containing protein 22 | EV protein: Cullin-2 | EV protein: Cullin-5 | EV protein: Cullin-7 | EV protein: Cytosolic purine [?] -nucleotidase | EV protein: DNA [?] (r264) | EV protein: DNA [?] licensing factor MCM4 | EV protein: DNA ligase 1 | EV protein: DNA replication licensing factor MCM5 | EV protein: DNA replication licensing factor [?] | EV protein: DNA-directed RNA polymerase II subunit RPB1 | EV protein: DNA-directed RNA polymerase II subunit RPB2 | EV protein: DNA-directed RNA polymerase II subunit RPB3 | EV protein: DNA-directed RNA polymerase [?] subunit RPA2 | EV protein: DNA-directed RNA polymerases I, II, and III subunit RPABC3 | EV protein: DNA-directed RNA polymerases I, II, and III subunit [?] | EV protein: Developmentally-regulated GTP-binding protein 2 | EV protein: Double-strand-break repair protein rad21 homolog | EV protein: Dual specificity mitogen-activated protein kinase kinase 4 | EV protein: Dynactin subunit 4 | EV protein: E3 ubiquitin-protein ligase [?] | EV protein: Elongin-B | EV protein: Exosome complex exonuclease RRP44 | EV protein: Gamma-tubulin complex component 2 | EV protein: Glucose-6-phosphate 1-dehydrogenase [?] | EV protein: Glycosylated lysosomal membrane protein | EV protein: Glycylpeptide N-tetradecanoyltransferase 1 | EV protein: Golgi reassembly-stacking protein 2 | EV protein: Histone-arginine methyltransterase CARM1 | EV protein: Immunity-related GTPase family M protein 1 | EV protein: Interleukin enhancer-binding factor 3 | EV protein: Leucyl-cystinyl aminopeptidase | EV protein: Lysine-specific histone demethylase [?] | EV protein: Mediator [?] RNA polymerase II transcription subunit 23 | EV protein: Metastasis-associated protein [?] (r222) | EV protein: Metastasis-associated protein [?] (r261) | EV protein: Methyl-CpG-binding domain protein [?] | EV protein: Microtubule-associated protein [?] | EV protein: N-alpha-acetyltransferase 10 | EV protein: Nuclear [?] complex protein [?] | EV protein: Nuclear cap-binding protein subunit 1 | EV protein: NudC domain-containing protein 1 | EV protein: Phosphoribosyl pyrophosphate synthase-associated protein 1 | EV protein: Probable ubiquitin carboxyl-terminal hydrolase [?] | EV protein: Protein O-GlcNAcase | EV protein: Protein RMD5 homolog A | EV protein: Protein [?] 14 homolog | EV protein: Protein transport protein [?] | EV protein: Ran-binding protein 10 | EV protein: Ribosome biogenesis protein BOP1 | EV protein: Ribosome production factor 2 homolog | EV protein: Serine threonine-protein phosphatase 2A 56 kDa regulatory subunit gamma isoform | EV protein: Serine threonine-protein phosphatase 6 catalytic subinit | EV protein: Sorting nexin-1 | EV protein: Splicing factor 3B subunit 4 | EV protein: Structural maintenance of [?] protein 2 | EV protein: WASH complex subunit 5 | EV protein: WD repeat-containing protein [?] | EV protein: WW domain-binding protein 2 | EV protein: [?] 2 (r185) | EV protein: [?] (r186) | EV protein: [?] -1 (r187) | EV protein: [?] -1 (r232) | EV protein: [?] -conjucating enxyme [?] | EV protein: [?] -promoting complex subunit 1 | EV protein: [?] -related [?] -associated actin-dependent regulator [?] chromatin subfamily A member 5 | EV protein: [?] complex subunit 2 | EV protein: [?] kinase | EV protein: [?] repeat-containing protein 5A | EV protein: [?] small nuclear ribonucleoprotein 40 kDa protein | EV protein: [?] small nucleolar RNA-associated protein 15 homolog | EV protein: [?] ubiquitin-protein ligase [?] | EV protein: p21-activated protein kinase-interacting protein 1 | EV protein: transportin-3 | WT MEF EVs, protein: DNA replication licensing factor MCM6 | WT MEF EVs, protein: DNA-directed RNA polymerases I and III subunit RPAC1 | WT MEF EVs, protein: Protein arginine N-methyltransferase 3 | WT MEF EVs, protein: Scavenger receptor class B member 1 | WT MEF EVs, protein: Serine threonine-protein phosphatase 2A 55 kDa regulatory subunit B alpha isoform | WT MEF EVs, protein: Small nuclear ribonucleoprotein-associated protein B | WT MEF EVs, protein: WASH complex subunit 4 | WT MEF EVs, protein: WD repeat-containing protein 26
